Assays:
[1] = biological target: CDK4/Cyclin D1 (Homo sapiens (Human), UniProt P11802); assay: CDK4/Cyclin D1 mobility shift assay; assay type: biochemical; settings: activated CDK4/Cyclin D1, 3.5 mM ATP, Morrison fit; read-out: CDK4D1 Ki
Protocol: (§1) The purpose CDK4/Cyclin D1 assay is to evaluate the inhibition (% inhibition, Kiapp and Ki values) in the presence of small molecule inhibitors by using a fluorescence based microfluidic mobility shift assay. […] The mobility shift assay electrophoretically separates the fluorescently labeled peptides (substrate and phosphorylated product) following the kinase reaction. Both substrate and product are measured and the ratio of these values is used to generate % Conversion of substrate to product by the LabChip EZ Reader.
The reaction was stopped after 195 minutes by the addition of 50 μL of 30 mM EDTA. Ki determinations were made from a plot of the fractional velocity as a function of inhibitor concentration fit to the Morrison equation with the enzyme concentration as a variable.
(§2) For CDK4 and CDK6 mobility shift assays, see also Morrison, J. F. (1969) Kinetics of the reversible inhibition of enzyme-catalysed reactions by tight-binding inhibitors, Biochimica et biophysica acta 185, 269-286; and Murphy, D. J. (2004) Determination of accurate KI values for tight-binding enzyme inhibitors: an in silico study of experimental error and assay design, Analytical biochemistry 327, 61-67.

[2] = biological target: CDK6/Cyclin D3 (Homo sapiens (Human), UniProt Q00534); assay: CDK6/Cyclin D3 mobility shift assay; assay type: biochemical; settings: activated CDK6/Cyclin D3, 3.5 mM ATP, Morrison fit; read-out: CDK6_D3 Ki
Protocol: as §1, with “of the CDK6/Cyclin D3” for “CDK4/Cyclin D1”, “conversion” for “Conversion”
The reaction was stopped after 95 minutes by the addition of 50 μL of 30 mM EDTA. Ki determinations were made from a plot of the fractional velocity as a function of inhibitor concentration fit to the Morrison equation with the enzyme concentration as a variable.
as §2

[3] = biological target: CDK4 (Homo sapiens (Human), UniProt P11802); assay: Phospho-Serine 795 Rb ELISA assay in JEKO-1 cells; assay type: cell-based; settings: overnight treatment, phospho-Rb S795, read-out: CDK4 pRB S795 ELISA JEKO-1 cells IC50
Protocol: (§3) JEKO-1 or MV4-11 cells were seeded at 15,000 or 20,000 cells per well, respectively, in 100 μL growth media and allowed to incubate at 37° C. with 5% CO2 overnight. The following day, compounds were serially diluted from a 10 mM top dose for an 11-point 3-fold dilution curve in DMSO. Compounds were intermediately diluted 1:200 into growth media prior to diluting 1:5 on cells for final concentration 10 μM to 0.1 nM in 0.1% DMSO on cells. JEKO-1 and MV4-11 cells were treated were treated overnight, at 37° C. with 5% CO2. Cells were lysed in 100 μL/well CST lysis buffer on ice and transferred to pre-coated and blocked anti-phospho-Ser795 Rb ELISA plates for overnight incubation at 4° C. Plates were washed to remove residual, unbound cellular proteins and total Rb detection antibody added for 90 minutes at 37° C. Following wash to remove unbound total Rb antibody, the HRP tagged antibody was allowed to bind for 30 minutes at 37° C. Following wash to remove unbound HRP antibody, Glo Substrate Reagent was added and incubated protected from light for 5 to 10 minutes. Plates were read in luminescence mode and IC50 values calculated.

[4] = biological target: CDK6 (Homo sapiens (Human), UniProt Q00534); assay: Phospho-Serine 795 Rb ELISA assay in MV4-11 cells; assay type: cell-based; settings: overnight treatment, phospho-Rb S795, read-out: CDK6 pRB S795 ELISA MV4-11 cells IC50
Protocol: as §3

Sequence of CDK4/Cyclin D1 (P11802 whole entry): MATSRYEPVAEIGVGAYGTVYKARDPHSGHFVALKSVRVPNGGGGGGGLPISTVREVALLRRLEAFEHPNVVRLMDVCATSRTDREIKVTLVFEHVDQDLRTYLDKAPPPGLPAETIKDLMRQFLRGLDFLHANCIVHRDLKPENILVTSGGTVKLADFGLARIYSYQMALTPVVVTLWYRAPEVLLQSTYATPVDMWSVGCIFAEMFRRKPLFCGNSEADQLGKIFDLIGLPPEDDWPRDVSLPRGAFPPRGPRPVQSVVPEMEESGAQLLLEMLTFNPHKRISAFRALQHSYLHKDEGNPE
Sequence of CDK4/Cyclin D1 (P24385 whole entry partner): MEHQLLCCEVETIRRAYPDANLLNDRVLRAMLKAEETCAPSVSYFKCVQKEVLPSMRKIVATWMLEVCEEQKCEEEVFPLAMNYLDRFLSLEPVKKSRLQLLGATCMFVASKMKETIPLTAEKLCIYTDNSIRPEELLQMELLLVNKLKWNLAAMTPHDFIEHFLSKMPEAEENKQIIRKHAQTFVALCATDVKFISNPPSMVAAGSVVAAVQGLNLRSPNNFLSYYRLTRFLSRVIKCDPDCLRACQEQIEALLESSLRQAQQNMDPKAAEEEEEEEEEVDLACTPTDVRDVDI
Sequence of CDK4 (P11802 2-303): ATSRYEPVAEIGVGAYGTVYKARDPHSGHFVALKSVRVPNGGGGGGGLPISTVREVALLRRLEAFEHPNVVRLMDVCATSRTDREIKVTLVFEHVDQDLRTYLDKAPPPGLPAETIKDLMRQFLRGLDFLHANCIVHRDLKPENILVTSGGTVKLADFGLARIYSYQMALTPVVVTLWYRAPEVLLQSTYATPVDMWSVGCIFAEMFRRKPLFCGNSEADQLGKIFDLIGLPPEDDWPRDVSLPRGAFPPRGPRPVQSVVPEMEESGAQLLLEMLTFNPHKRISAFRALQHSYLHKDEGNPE
Sequence of CDK4 (P24385 whole entry partner): as the sequence (P24385 whole entry partner) above
Sequence of CDK6 (Q00534 whole entry): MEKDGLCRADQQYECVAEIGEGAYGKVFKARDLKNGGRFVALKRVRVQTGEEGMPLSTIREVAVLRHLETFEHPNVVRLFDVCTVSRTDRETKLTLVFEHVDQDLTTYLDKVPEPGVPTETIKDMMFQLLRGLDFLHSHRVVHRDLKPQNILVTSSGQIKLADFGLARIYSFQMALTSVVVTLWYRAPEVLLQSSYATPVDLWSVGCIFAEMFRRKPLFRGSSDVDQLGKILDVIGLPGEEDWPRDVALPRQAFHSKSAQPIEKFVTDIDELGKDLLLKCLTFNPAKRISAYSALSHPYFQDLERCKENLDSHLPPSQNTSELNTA
Sequence of CDK6 (P30281 whole entry partner): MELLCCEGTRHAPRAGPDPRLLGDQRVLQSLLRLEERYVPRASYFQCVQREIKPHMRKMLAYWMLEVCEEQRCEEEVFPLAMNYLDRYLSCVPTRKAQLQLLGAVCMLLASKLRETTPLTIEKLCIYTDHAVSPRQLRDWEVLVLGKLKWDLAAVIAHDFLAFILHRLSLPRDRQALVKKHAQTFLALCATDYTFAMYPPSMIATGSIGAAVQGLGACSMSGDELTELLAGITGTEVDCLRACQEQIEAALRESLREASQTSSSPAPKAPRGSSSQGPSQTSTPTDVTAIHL
Sequence of CDK6/Cyclin D3 (Q00534 whole entry): as the sequence (Q00534 whole entry) above
Sequence of CDK6/Cyclin D3 (P30281 whole entry partner): as the sequence (P30281 whole entry partner) above

| Ki [1] [nM] | Ki [2] [nM] | IC50 [3] [nM] | IC50 [4] [nM] | Compound |
| --- | --- | --- | --- | --- |
| 1.8 | 23.3 | 246 | 644 | CC(C)n1cnc2c(F)cc(-c3nc(N[C@@H]4CCN(C(=O)C5(N)CC(F)(F)C5)C[C@H]4O)ncc3Cl)cc21 [Example F29, (1-amino-3,3-difluorocyclobutyl)[(3R,4R)-4-({5-chloro-4-[4-fluoro-1-(propan-2-yl)-1H-benzimidazol-6-yl]pyrimidin-2-yl}amino)-3-hydroxypiperidin-1-yl]methanone] |
| 0.4 | 7.7 | 59.5 | 246 | C[C@H](O)C(=O)N1CC[C@@H](Nc2ncc(Cl)c(-c3cc(F)c4ncn(C(C)(C)C)c4c3)n2)[C@H](O)C1 [Example F21, (2S)-1-[(3R,4R)-4-{[4-(1-tert-butyl-4-fluoro-1H-benzimidazol-6-yl)-5-chloropyrimidin-2-yl]amino}-3-hydroxypiperidin-1-yl]-2-hydroxypropan-1-one] |
| 0.6 | 5.1 | 68.6 | 95.7 | Cn1nc2ccc(-c3nc(N[C@@H]4CCN(S(C)(=O)=O)C[C@H]4O)ncc3Cl)cc2c1C(C)(C)O [Example A29] |
| 2 | 24.3 | 155 | 787 | CC(C)n1cnc2c(Cl)cc(-c3nc(N[C@@H]4CCN(C(=O)[C@@H](C)O)C[C@H]4O)ncc3Cl)cc21 [Example F20, (2R)-1-[(3R,4R)-4-({5-chloro-4-[4-chloro-1-(propan-2-yl)-1H-benzimidazol-6-yl]pyrimidin-2-yl}amino)-3-hydroxypiperidin-1-yl]-2-hydroxypropan-1-one] |
| 0.5 | 8.3 | 83.2 | 127 | Cc1nc2c(F)cc(-c3nc(N[C@@H]4CCN(C(=O)CO)C[C@H]4O)ncc3F)cc2n1C(C)C [Example F17, 1-[(3R,4R)-4-({5-fluoro-4-[4-fluoro-2-methyl-1-(propan-2-yl)-1H-benzimidazol-6-yl]pyrimidin-2-yl}amino)-3-hydroxypiperidin-1-yl]-2-hydroxyethan-1-one] |
| 0.9 | 18.6 | 205 | 230 | CC(C)n1c(CNC2COC2)nc2c(F)cc(-c3nc(N[C@@H]4CCN(S(C)(=O)=O)C[C@H]4O)ncc3Cl)cc21 [Example H09, (3R,4R)-4-({5-chloro-4-[4-fluoro-2-{[(oxetan-3-yl)amino]methyl}-1-(propan-2-yl)-1H-benzimidazol-6-yl]pyrimidin-2-yl}amino)-1-(methanesulfonyl)piperidin-3-ol] |
| 0.2 | 2.6 | 11.4 | 33.5 | C[C@H](O)c1nc2c(F)cc(-c3nc(N[C@@H]4CCOC[C@H]4O)ncc3Cl)cc2n1C(C)(C)C [Example A61, 1,5-anhydro-3-[(4-{1-tert-butyl-4-fluoro-2-[(1S)-1-hydroxyethyl]-1H-benzimidazol-6-yl}-5-chloropyrimidin-2-yl)amino]-2,3-dideoxy-D-threo-pentitol] |
| 0.6 | 56.7 | 47.7 | 521 | CC(C)n1c(CC2(N)CCCC2)nc2c(F)cc(-c3nc(N[C@@H]4CCOC[C@H]4O)ncc3Cl)cc21 [Example A59, 3-[(4-{2-[(1-aminocyclopentyl)methyl]-4-fluoro-1-(propan-2-yl)-1H-benzimidazol-6-yl}-5-chloropyrimidin-2-yl)amino]-1,5-anhydro-2,3-dideoxy-D-threo-pentitol] |
| 4.5 | 93.3 | 249 | 1470 | CC(C)n1c(CNC2COC2)nc2c(F)cc(-c3nc(N[C@@H]4CCOC[C@H]4O)ncc3Cl)cc21 [Example H05, 1,5-anhydro-3-({5-chloro-4-[4-fluoro-2-{[(oxetan-3-yl)amino]methyl}-1-(propan-2-yl)-1H-benzimidazol-6-yl]pyrimidin-2-yl}amino)-2,3-dideoxy-D-threo-pentitol] |
| 0.8 | 14.6 | 114 | 576 | COC(=O)N1CC[C@@H](Nc2ncc(F)c(-c3cc(F)c4nc(C)n(C(C)C)c4c3)n2)[C@H](O)C1 [Example F01, methyl (3R,4R)-4-({5-fluoro-4-[4-fluoro-2-methyl-1-(propan-2-yl)-1H-benzimidazol-6-yl]pyrimidin-2-yl}amino)-3-hydroxypiperidine-1-carboxylate] |
| 0.1 | 2.5 | 88.6 | 163 | Cc1nc2c(F)cc(-c3nc(N[C@@H]4CCN(S(C)(=O)=O)C[C@H]4O)ncc3F)cc2n1C(C)C [Example A02] |
| 0.8 | 38.2 | 63.4 | 221 | CC(C)n1c(CN2C[C@@](C)(O)[C@@H]2C)nc2c(F)cc(-c3nc(N[C@@H]4CCOC[C@H]4O)ncc3Cl)cc21 [Example H04, 1,5-anhydro-3-({5-chloro-4-[4-fluoro-2-{[(2S,3R)-3-hydroxy-2,3-dimethylazetidin-1-yl]methyl}-1-(propan-2-yl)-1H-benzimidazol-6-yl]pyrimidin-2-yl}amino)-2,3-dideoxy-D-threo-pentitol] |
| 0.5 | 12.5 | 66.1 | 377 | CC(C)(C)n1cnc2c(F)cc(-c3nc(N[C@@H]4CCN(C(=O)C5(N)CC(F)(F)C5)C[C@H]4O)ncc3Cl)cc21 [Example F30, (1-amino-3,3-difluorocyclobutyl)[(3R,4R)-4-{[4-(1-tert-butyl-4-fluoro-1H-benzimidazol-6-yl)-5-chloropyrimidin-2-yl]amino}-3-hydroxypiperidin-1-yl]methanone] |
| 2.4 | 127 | 137 | 858 | CC(C)n1c(CN2CC(C)(O)C2)nc2c(F)cc(-c3nc(N[C@@H]4CCOC[C@H]4O)ncc3Cl)cc21 [Example H01, 1,5-anhydro-3-[(5-chloro-4-{4-fluoro-2-[(3-hydroxy-3-methylazetidin-1-yl)methyl]-1-(propan-2-yl)-1H-benzimidazol-6-yl}pyrimidin-2-yl)amino]-2,3-dideoxy-D-threo-pentitol] |
| 1.8 | 28 | 182 | 520 | Cc1nc2cc(F)c(-c3nc(N[C@@H]4CCN(S(C)(=O)=O)C[C@H]4O)ncc3F)cc2n1C(C)C [Example A07] |
| 0.6 | 11.4 | 330 | 289 | Cc1nc2c(F)cc(-c3ccnc(N[C@@H]4CCN(S(C)(=O)=O)C[C@H]4O)n3)cc2n1C(C)C [Example A04] |
| 0.6 | 13.9 | 38.5 | 145 | CC(C)n1c(C(C)(C)O)nc2c(F)cc(-c3nc(N[C@@H]4CCOC[C@H]4O)ncc3Cl)cc21 [Example A94, 1,5-anhydro-3-({5-chloro-4-[4-fluoro-2-(2-hydroxypropan-2-yl)-1-(propan-2-yl)-1H-benzimidazol-6-yl]pyrimidin-2-yl}amino)-2,3-dideoxy-D-threo-pentitol] |
| 0.3 | 5 | 33.2 | 103 | COCc1nc2c(F)cc(-c3nc(N[C@@H]4CCN(S(C)(=O)=O)C[C@H]4O)ncc3Cl)cc2n1C(C)C [Example A75, (3R,4R)-4-({5-chloro-4-[4-fluoro-2-(methoxymethyl)-1-(propan-2-yl)-1H-benzimidazol-6-yl]pyrimidin-2-yl}amino)-1-(methanesulfonyl)piperidin-3-ol] |

— patent US10766884B2 (Pfizer Inc., priority 2018, dated 2020)
